The source of these data is US9618524B2, “Method, composition, isolation and identification of a plaque particle and related biomarker” (Plaxgen Inc., priority 2012, dated 2017).

What all share (test): Mass spectroscopy proteomics, semi-quantitative binding affinity of serum proteins (plaqueproteome, Table 2)
Common to all, as to settings: higher number = stronger affinity

Test [1] concerns the target T1, alpha-synuclein plaque particles (Homo sapiens, UniProt P37840).
T1 construct: 140 amino acids polypeptide
As to the method: To prepare oligomers/aggregates of human alpha-synuclein (140 amino acids polypeptide), 1 mg of the recombinant alpha-synuclein protein was suspended in 1 mL of PBS and the sample was incubated at 37° C. for 2 hrs. After incubation, all the samples were centrifuged for 5 min. at 5000 rpm to remove precipitate, if any, and the supernatant containing oligomers/aggregates were used in vitro plaque particles formation assay. For detecting alpha-synuclein plaque particles Thioflavin S (Ex/Em=430 nm/550 nm) amyloid binding fluorescent dye (10 μg) was used.
Similarly, to isolate alpha-synuclein plaque particles, diluted plasma or serum samples obtained from AD subjects were used for incubation with alpha-synuclein plaque oligomers/aggregates. Each assay was performed in 1 mL reaction (800 μL of 50% plasma or serum) and 200 μL (30 μg) of the alpha-synuclein aggregates and the mixtures were incubated at 37° C. for 1 hr. To the mixture Thioflavin S dye (120 μg) was added and the sample was incubated for additional 30 min at 37° C. After the incubation, the mixture was directly used for sample acquisition using flow cytometer (FACS ARIA II, BD Biosciences, San Jose, Calif.). After initial detection of alpha-synuclein plaque particles, gates were drawn in the acquisition blot to separately sort and isolate fluorescently labeled alpha-synuclein particles.
(§1) For preparing trypsin digested peptide sequences, the isolated plaque particles were centrifuged at 10000 rpm for 5 min and the pellet containing plaque particles was resuspended in 100 μl PBS buffer. Stock solutions of digestion buffer (Ammonium Biocarbonate 50 mM), reducing buffer (DDT 100 mM) and alkylation buffer (lodoaceamide 100 mM) were prepared and stored at −20° C. for up to two months. For trypsin digestion, 100 μl of each plaque particles (2000 of Abeta-42, cholesterol, Tau and alpha-synuclein) were precipitated using cold acetone −80° C. by adding 4X's the volume. The samples were placed on dry ice for 10 min with intermittent vortex. Next, the samples were centrifuged at 4° C. at 10000 G for 10 min. Top layer of acetone was carefully removed from the tube with care not to disturb the plaque particles pellet. The samples were speed-vac for 10 min to ensure all acetone has been boiled away. The plaque particles pellet were reconstituted with 15 μl 8M Urea 100 mM Ammonium bicarbonate stock and 20 μl protease max solution. The protease max solution (Promega, Madison, Wis.) was prepared from stock by adding 60 μl 50 mM Ammonium bicarbonate and used for 3 solution digests (20 μl each). […] The tubes were incubated at 55° C. for 30 minutes. The tubes were then removed and brought to the room temperature followed by addition of 3.2 μl of 1M acrylamide and incubated at room temperature for 30 minutes. To the sample, 63 μL of 50 mM Ammonium bicarbonate was added for a final volume of 98 μl and 2 μl of trypsin (10 μg, Trypsin/Lys C Mix). After mixing the solution with pipet the samples were incubated at 37° C. overnight. After the overnight digest, the tryptic digest were quenched and acidified by adding 10 μl of 50% formic acid/water stock dilution. The samples were centrifuged at 10000 G for 2 minutes and purified using stage tip and used for MS/Mass analysis.
(§2) All MS/MS samples were analyzed using Sequest (Thermo Fisher Scientific, San Jose, Calif., USA; version 1.0). Sequest was set up to search the SUMS_uniprot_Human database (35847 entries) assuming the digestion enzyme strict trypsin. Sequest was searched with a fragment ion mass tolerance of 1.00 Da and a parent ion tolerance of 20 PPM. Propionamide of cysteine was specified in Sequest as a fixed modification. Oxidation of methionine and phospho of serine, threonine and tyrosine were specified in Sequest as variable modifications.
Scaffold (version Scaffold_4.2.1, Proteome Software Inc., Portland, Oreg.) was used to validate MS/MS based peptide and protein identifications.

The subject of a further test is Tau plaque particles. Further details: species or system human. As to the method:
For Tau-74 (74-102) (Exon 3/Insert 2 domain) preparation, 1 mg of Tau-74 was suspended in 1 mL of PBS and the sample was incubated at 37° C. for 2 hrs. Similarly for preparing Tau-275 (275-305) (Repeat 2 domain) 1 mg of the peptide was suspended in 1 mL of PBS and the sample was incubated at 37° C. for 2 hrs. After incubation, all the samples were centrifuged for 5 min. at 5000 rpm to remove precipitate, if any, and the supernatant containing oligomers/aggregates were used for in vitro amyloid plaque particles formation assay. For detecting Tau plaque particles, Thioflavin S (Ex/Em=430 nm/550 nm) amyloid binding fluorescent dye (10 μg) was used in the assay.
Next, to isolate Tau plaque particles, as performed for Abeta-42 and Abeta-28 plaque particles isolation, diluted serum samples were used for incubation separately with Tau-45, Tau-74 and Tau-275 oligomers/aggregates. Each assay was performed in 1 mL reaction (800 μL of 50% plasma or serum) and 200 μL (30 μg) of each Tau aggregates and the mixtures were incubated at 37° C. for 1 hr. To the each mixture Thioflavin S dye (120 μg) was added and the sample was incubated for additional 30 min at 37° C. After the incubation, each sample was directly used for sample acquisition using flow cytometer (FACS ARIA II, BD Biosciences, San Jose, Calif.). After initial detection of Tau plaque particles, gates were drawn in the acquisition blot to separately sort and isolate fluorescently labeled Tau plaque particles.
as §1, §2

Test [2] relates to High Density cholesterol (Chl Large) plaque particles. The arrangement: species or system human. As to the method:
(§3) The goal was to isolate plaque particles synthesized in the bio-fluids in a relatively pure form to enable their subsequent use for identification of components that contribute to the plaque formation. In order to isolate cholesterol plaque particles, the plasma or serum samples obtained from atherosclerotic subjects were first centrifuged at 5,000 rpm for 5 min and the supernatants were transferred to new centrifuge tubes. Next, the supernatants were diluted in PBS to make 50% of the serum and used for incubation with cholesterol oligomers/aggregates. Each assay was performed in 1 mL reaction (800 μL of 50% plasma or serum) and 200 μL (30 μg) of the Cholesterol aggregates and the mixtures were incubated at 37° C. for 1 hr After the incubation, the mixture was directly used for sample acquisition using flow cytometer (FACS ARIA II, BD Biosciences, San Jose, Calif.). […] In order to isolate these fractions, three sets of gates were drawn in the acquisition blot to separately sort and isolate High density or high complex cholesterol particles, Low density or low complex cholesterol particles and both High and low density cholesterol particles together.
as §1, §2
(§4) Scaffold (version Scaffold_4.2.1, Proteome Software Inc., Portland, Oreg.) was used to validate MS/MS based peptide and protein identifications. […] Protein probabilities were assigned by the Protein Prophet algorithm (Nesvizhskii, Al et al 2003).

Test [3] deals with Low density cholesterol (Chl small) plaque particles. The arrangement: species or system human. As to the method: as §3, §1, §2, §4
Test [4] concerns the target T2, Abeta-42 plaque particles (Homo sapiens, UniProt P05067).
T2 construct: Abeta 1-42
As to the method: Next to isolate serum derived Abeta-42 plaque particles, the plasma or serum samples obtained from AD subjects were first centrifuged at 5,000 rpm for 5 min and the supernatants were transferred to new centrifuge tubes. Next, the supernatants were diluted in PBS to make 50% of the serum and plasma samples and used for incubation with Abeta-42 plaque oligomers/aggregates. Each assay was performed in 1 mL reaction (800 μL of 50% plasma or serum) and 200 μL (30 μg) of the Abeta-42 aggregates and the mixtures were incubated at 37° C. for 1 hr. To the mixture Thioflavin S dye (120 μg) was added and the sample was incubated for additional 30 min at 37° C. After the incubation, the mixture was directly used for sample acquisition using flow cytometer (FACS ARIA II, BD Biosciences, San Jose, Calif.). After initial detection of Abeta-42 plaque particles in the acquisition blot, gates were drawn in fluorescent dot blot to separately sort and isolate fluorescently labeled Abeta-42 particles.
as §1, §2
Scaffold (version Scaffold_4.2.1, Proteome Software Inc., Portland, Oreg.) was used to validate MS/MS based peptide and protein identifications. […] Protein probabilities were assigned by the Protein Prophet algorithm (Nesvizhskii, Al et al 2003). […] Proteins sharing significant peptide evidence were grouped into clusters. Proteins were annotated with GO terms from NCBI (downloaded Jan. 17, 2014).

As to Ig kappa chain V-III region NG9, the “Semi-quantitative analysis of proteins binding to different plaque particles: Synuclein” value in test [1] was 2. The “Semi-quantitative analysis of proteins binding to different plaque particles: Tau” value in the test on Tau plaque particles is recorded as 3. The “Semi-quantitative analysis of proteins binding to different plaque particles: Chl Large” value in test [2] came out at 2. Besides, the “Semi-quantitative analysis of proteins binding to different plaque particles: Chl small” value in test [3] turned out to be 1. Moreover, the “Semi-quantitative analysis of proteins binding to different plaque particles: Abeta-42” value in test [4] is 0.
For the substance Coagulation factor XII, the “Semi-quantitative analysis of proteins binding to different plaque particles: Synuclein” value in test [1] is on record as 1. In the test with Tau plaque particles, the “Semi-quantitative analysis of proteins binding to different plaque particles: Tau” value is listed as 1. Also, the “Semi-quantitative analysis of proteins binding to different plaque particles: Chl Large” value in test [2] was determined as 0. Further, the “Semi-quantitative analysis of proteins binding to different plaque particles: Chl small” value in test [3] is given as 0. Moreover, the “Semi-quantitative analysis of proteins binding to different plaque particles: Abeta-42” value in test [4] was 0.
Cluster of Histone H1.2: the “Semi-quantitative analysis of proteins binding to different plaque particles: Synuclein” value in test [1] amounted to 0. Moreover, in the test on Tau plaque particles, the “Semi-quantitative analysis of proteins binding to different plaque particles: Tau” value was determined as 0. The “Semi-quantitative analysis of proteins binding to different plaque particles: Chl Large” value in test [2] came to 0. The “Semi-quantitative analysis of proteins binding to different plaque particles: Chl small” value in test [3] was found to be 0. For the same substance, the “Semi-quantitative analysis of proteins binding to different plaque particles: Abeta-42” value in test [4] came to 2.
Take Alpha-2-macroglobulin: the “Semi-quantitative analysis of proteins binding to different plaque particles: Synuclein” value in test [1] amounted to 44. Also, the “Semi-quantitative analysis of proteins binding to different plaque particles: Tau” value in the test with Tau plaque particles is 45. In addition, the “Semi-quantitative analysis of proteins binding to different plaque particles: Chl Large” value in test [2] came to 43. Further, the “Semi-quantitative analysis of proteins binding to different plaque particles: Chl small” value in test [3] is on record as 43. For the same substance, in test [4], the “Semi-quantitative analysis of proteins binding to different plaque particles: Abeta-42” value was determined as 32.
For Transthyretin, the “Semi-quantitative analysis of proteins binding to different plaque particles: Synuclein” value in test [1] amounted to 23. The “Semi-quantitative analysis of proteins binding to different plaque particles: Tau” value in the test with Tau plaque particles came out at 13. For the same substance, the “Semi-quantitative analysis of proteins binding to different plaque particles: Chl Large” value in test [2] worked out at 25. Also, the “Semi-quantitative analysis of proteins binding to different plaque particles: Chl small” value in test [3] stood at 21. Further, the “Semi-quantitative analysis of proteins binding to different plaque particles: Abeta-42” value in test [4] is 14.
For Complement component C9 the same measures were 1, 0, 1, 1 and 0.
Taken in the same sequence, the figures for Ig gamma-1 chain C region were 44, 27, 41, 51 and 12.
For Ig heavy chain V-III region BUT the same measures were 1, 1, 1, 1 and 2.
In the case of Isoform 2 of Clusterin, in test [1], the “Semi-quantitative analysis of proteins binding to different plaque particles: Synuclein” value amounted to 7. In addition, in the test with Tau plaque particles, the “Semi-quantitative analysis of proteins binding to different plaque particles: Tau” value came to 5. Moreover, the “Semi-quantitative analysis of proteins binding to different plaque particles: Chl Large” value in test [2] came to 6. Moreover, the “Semi-quantitative analysis of proteins binding to different plaque particles: Chl small” value in test [3] was found to be 4. In addition, the “Semi-quantitative analysis of proteins binding to different plaque particles: Abeta-42” value in test [4] is on record as 4.
Complement component C6: the “Semi-quantitative analysis of proteins binding to different plaque particles: Synuclein” value in test [1] is recorded as 3. The “Semi-quantitative analysis of proteins binding to different plaque particles: Tau” value in the test with Tau plaque particles came to 1. Moreover, the “Semi-quantitative analysis of proteins binding to different plaque particles: Chl Large” value in test [2] came to 1. Further, the “Semi-quantitative analysis of proteins binding to different plaque particles: Chl small” value in test [3] is 1. For the same substance, the “Semi-quantitative analysis of proteins binding to different plaque particles: Abeta-42” value in test [4] amounted to 0.
Apolipoprotein C-III: in test [1], the “Semi-quantitative analysis of proteins binding to different plaque particles: Synuclein” value is on record as 1. The “Semi-quantitative analysis of proteins binding to different plaque particles: Tau” value in the test with Tau plaque particles came to 5. In addition, the “Semi-quantitative analysis of proteins binding to different plaque particles: Chl Large” value in test [2] turned out to be 4. The “Semi-quantitative analysis of proteins binding to different plaque particles: Chl small” value in test [3] amounted to 4. The “Semi-quantitative analysis of proteins binding to different plaque particles: Abeta-42” value in test [4] is 4.
For Ig kappa chain V-I region Wes, the “Semi-quantitative analysis of proteins binding to different plaque particles: Synuclein” value in test [1] is 2. In addition, the “Semi-quantitative analysis of proteins binding to different plaque particles: Tau” value in the test on Tau plaque particles is reported as 2. In addition, the “Semi-quantitative analysis of proteins binding to different plaque particles: Chl Large” value in test [2] is recorded as 2. For the same substance, the “Semi-quantitative analysis of proteins binding to different plaque particles: Chl small” value in test [3] is 1. Besides, the “Semi-quantitative analysis of proteins binding to different plaque particles: Abeta-42” value in test [4] turned out to be 2.
